Read-outs that look alike come from different tables or passages of the source. Marks after values point to notes of the source that are not given here. Values belong to the compound of their own block, whether it stands above or below them.
Key:
ORAC assay = conditions: 5.0 µM compound
Protocol: The radical oxygen absorption capacity (ORAC) assay was performed as previously described. Briefly, trolox was prepared in phosphate buffer over a concentration range of 6.25 to 50 µM. In 24–well plates, 1.5 mL of fluorescein (0.08 µM) was added, followed by 250 µL of trolox for the control, 250 µL of buffer for the blank, and 250 µL of each inhibitor (5.0 µM). After 10 min of incubation, at 37 °C, 250 µL of 0.15 M AAPH was added. Successively, the PerkinElmer Victor Nivo microplate reader (Waltham, MA, USA) was settled for a fluorescence kinetic reading at 37 °C for one hour, with excitation and emission wavelengths, respectively, of 485 and 530 nm. The results were expressed in TEAC (trolox equivalent antioxidant capacity, TE µmol/µmol compound).

[1] = DPPH radical scavenging assay; conditions: for pD2 (−log EC50) antiradical potency: 70 µM DPPH, 60 min
Protocol: The free radical scavenging activity of the samples was measured using the DPPH^• method. Sample solutions were prepared and added to 70 µM DPPH^•; the mixtures were kept in the dark for 60 min and absorbance was read at 517 nm using a Beckman Coulter DU 8005 spectrophotometer (Fullerton, CA, USA). The radical scavenging capacity was expressed as a percentage effect.

[2] = GK peptide–ribose assay (peptide cross–linking); conditions: 2 days; for reduction of GK peptide cross–linking (in words): 1–100 µM
Protocol: The N–acetyl–glycyl–lysine methyl ester (GK) peptide–ribose assay was performed with some modifications to a published method. Briefly, GK peptide (27 mg/mL), a synthetic model peptide, was incubated with 40 mg/mL (0.27 M) D–ribose in sodium phosphate buffer (pH 7.4) and test samples were added at final concentrations ranging from 1.0–100 μM. After 48 h of incubation, fluorescence was read at 355 and 460 nm for excitation and emission wavelengths, respectively, with a PerkinElmer Victor Nivo microplate reader (Waltham, MA, USA). The fluorescence measurement allows the calculation of GK peptide glycation inhibition as a percentage difference between the control condition and glycation in the presence of the inhibitor. Aminoguanidine (2.5 mM, AG) was used as a positive control.

BSA [3] = assay: BSA assay (AGE formation by fluorescence); set-up: species or system bovine; conditions: for concentration inhibiting glyoxal-induced BSA glycation: 50 mg/mL BSA + 0.003 M glyoxal
Protocol: Glycated BSA was obtained according to a previously reported method. Briefly, AGEs were detected using BSA (50 mg/mL, pH 7.4), as protein substrate, and glucose (0.8 M), glyoxal (0.003 M) or ribose (0.1 M), as glycation agents. […] The fluorescence intensity was measured at an excitation wavelength of 355 nm and an emission wavelength of 460 nm with a PerkinElmer Victor Nivo microplate reader (Waltham, MA, USA). Inhibition of AGE formation was calculated as the fluorescence difference between glycation under the control condition and in the presence of each inhibitor. Aminoguanidine (2.5 mM, AG) was used as a positive control.

α–glucosidase = conditions: cited from earlier work
BSA [4] = assay: Carbonyl content assay (BSA–ribose glycation); set-up: species or system bovine; conditions: 50 mg/mL BSA + 0.1 M ribose; for inhibition of carbonyl increase: not concentration dependent
Protocol: The total protein–bound carbonyl content was determined by derivatization of the carbonyl group with 2,4–dinitrophenylhydrazine (DNPH), which leads to the formation of a stable dinitrophenylhydrazone product, which was monitored spectrophotometrically at 375 nm with a PerkinElmer Victor Nivo microplate reader (Waltham, MA, USA). Glycated BSA samples were mixed with DNPH solution (10 mM in 2.0 M HCl) for 1 h at 37 °C in the dark. The proteins were precipitated with 20% trichloroacetic acid. The mixture was centrifuged at 10,000× g rpm, 10 min at 4 °C, to obtain a pellet and the supernatant was removed. DNPH was removed by extracting the pellet twice using a solution of ethyl acetate/ethanol (1:1). Lastly, the pellet was dissolved in guanidine hydrochloride (6 M) before reading the absorbance at 375 nm. The concentration of DNPH derivatized proteins was determined by the molar extinction coefficient of 22,000 M^−1 cm^−1 [64]. The protein concentration was measured using a BCA assay, and the protein carbonyl concentration was expressed as nmol/mg of protein. Aminoguanidine (2.5 mM, AG) was used as a positive control.

[5] = system: α–glucosidase (EC 3.2.1.20, Saccharomyces cerevisiae type I); format: biochemical; conditions: for inhibition of α–glucosidase activity: 50 µM compound
Protocol: The inhibitory activity of baicalein and baicalin was studied using the yeast α–glucosidase assay, using pNPG as a substrate. The enzyme acts by hydrolyzing pNPG into […] and p–nitrophenol (yellow); the reaction was detected at different inhibitor concentrations by variation in chromatic intensity. Acarbose ([…]) was used as a positive control. Each sample was incubated with several α–glucosidase concentrations (0.035, 0.05, 0.07 and 0.1 µM) in PBS solutions (pH 6.8) for 10 min, at 37 °C. The reaction started with the addition of pNPG. Absorbance values were detected at 405 nm for 60 min, using a PerkinElmer Victor Nivo microplate reader spectrophotometer (Waltham, MA, USA). The half–maximal inhibitory concentration (IC50) was estimated by the plot of relative enzyme activity versus inhibitor concentration. The type of enzyme inhibition exerted by baicalein was evaluated from kinetic studies using different substrate concentrations (0.5, 1.0, 1,5 and 2.0 mM pNPG) through the Michaelis–Menten and Lineweaver–Burk plots.

HT–29 cells [6] = assay: HT–29 uptake assay (HPLC–DAD); format: in vitro ADME, human; conditions: 1 to 50 µM in cell medium, 30 min–3 h
Protocol: To evaluate the cellular uptake of compounds, a previously described method was used. Briefly, HT–29 cells were seeded in a 6–well plate at a density of 500,000 cells in each well in a complete medium and allowed to grow until confluence for 48 h, at 37 °C (Figure 11). […] After incubation, an aliquot of the extracellular solution was taken from each well and stored at −20 °C for further analysis. The medium was then removed, the cells were washed with PBS and prepared for the following steps: (i) protein quantification, cells were lysed with 200 μL of lysis buffer and the wells were washed with 200 μL of PBS; and (ii) evaluation of cell uptake, cells were gently scraped with PBS, centrifuged at 1250× g rpm for 5 min, and added with 500 μL of 80% v/v methanolic solution in water/0,1% v/v acetic acid to extract intracellular content. The samples were kept on ice for 15 min, then sonicated and centrifuged at 20,000× g rpm for 10 min. […]
Chromatographic analyses were performed with an HPLC instrument (Waters Corporation, Milford, DE, USA) equipped with a 1525 binary HPLC pump and a 2998 photodiode array detector. […] Peaks were detected in the range of 210–400 nm. […] The amount of each compound was calculated using a standard calibration curve. The protein content of the lysate was detected using the Lowry protein assay, to express the results as nmol/mg protein.

rat α–glucosidase = conditions: cited from earlier work
HT–29 cells [7] = assay: MTT cell viability assay; format: cell-based, human
Protocol: Cell viability was assessed with the MTT assay. HT–29 cells were seeded in a 96–well plate at a density of 5000 cells in each well and allowed to grow overnight. The cells were treated with various concentrations of the substances. After 24 h of incubation, an aliquot of MTT solution was added to each well, to reach the final concentration of 500 μg/mL. Subsequently, after the MTT reduction by cellular enzymes, the medium was removed and the insoluble formazan salts were solubilized with 2–propanol. The absorbance of each purple formazan solution was measured using a PerkinElmer Victor Nivo microplate reader (Waltham, MA, USA), at a wavelength of 520 nm.

[8] = 50 mg/mL BSA + 0.1 M ribose, 5 days
[9] = 50 mg/mL BSA + 0.8 M glucose, 7 days
[10] = α–glucosidase 0.035 µM, 2 mM pNPG
[11] = α–glucosidase 0.05 µM, 2 mM pNPG
[12] = α–glucosidase 0.07 µM, 2 mM pNPG
[13] = α–glucosidase 0.10 µM, 2 mM pNPG

pD2 (−log EC50) antiradical potency [1]: 4.77 ± 0.04
Structure (SMILES): O=C1O[C@H]([C@@H](O)CO)C(O)=C1O [ascorbic acid]
TEAC (trolox equivalent antioxidant capacity) (ORAC assay): 0.65 ± 0.01 µmol TE/µmol

Structure (SMILES): CN(C)C(=N)NC(=N)N [metformin, 1,1–dimethylbiguanide]
TEAC (trolox equivalent antioxidant capacity) (ORAC assay): 0.48 ± 0.10 µmol TE/µmol
reduction of GK peptide cross–linking (in words) [2]: not active
DPPH scavenging effect (in words) ([1]; 0.1 to 500 µM): did not show any scavenging effect
inhibition of AGE formation (in words) (BSA [3]; [8]): did not achieve any protection
inhibition of AGE formation (in words) (BSA [3]; [9]): did not show any significant inhibition
inhibition of AGE formation (in words) (BSA [3]; 1–100 µM, glucose, glyoxal and ribose (Figure 3)): did not show a significant effect

pD2 (−log EC50) antiradical potency [1]: 4.38 ± 0.02
Structure (SMILES): CC(=O)N[C@@H](CS)C(=O)O [NAC, N–acetylcysteine]
TEAC (trolox equivalent antioxidant capacity) (ORAC assay): 1.45 ± 0.01 µmol TE/µmol

IC50 ([2]; GK peptide + ribose, read-out: IC50 of AGE formation (GK cross–linking)): 49.7 ± 0.5 µM
inhibition of α–glucosidase activity ([5]; 0.035 µM α–glucosidase): about 90%
inhibition of α–glucosidase activity ([5]; 0.05 µM α–glucosidase): ~75%
type of enzyme inhibition ([5]; Lineweaver–Burk plot, 0.05 µM enzyme, 0.5–2.0 mM pNPG): mixed–type
Ki ([5]; mixed–model inhibition, 0.05 µM enzyme, 0.5–2.0 mM pNPG, read-out: inhibition constant (Ki)): 25.9 µM
IC50 [5, 10]: 18.1 µM
pD2 (−Log IC50) [5, 10]: 4.74 ± 0.02 ^a
IC50 [5, 11]: 24.1 µM
pD2 (−Log IC50) [5, 11]: 4.62 ± 0.04 ^a
IC50 [5, 12]: 51.6 µM
pD2 (−Log IC50) [5, 12]: 4.29 ± 0.07 ^a
IC50 [5, 13]: 555 µM
pD2 (−Log IC50) [5, 13]: 3.26 ± 0.26 ^b
pD2 (−log EC50) antiradical potency [1]: 4.91 ± 0.01
parent compound after incubation with cells (in words) (HT–29 cells [6]): no longer measurable
Structure (SMILES): O=c1cc(-c2ccccc2)oc2cc(O)c(O)c(O)c12 [baicalein, 5,6,7–trihydroxyflavone]
TEAC (trolox equivalent antioxidant capacity) (ORAC assay): 5.41 ± 0.33 µmol TE/µmol
Ki (α–glucosidase; ref 53): 45 µM
Ki (α–glucosidase; ref 54): 44 µM
concentration range with detectable reduction of carbonyl increase (BSA [4]): 10 to 100 µM
inhibition of carbonyl increase (BSA [4]): 15–25%
pD2 of AGE formation (GK cross–linking) ([2]; GK peptide + ribose): 4.3
concentration inhibiting glyoxal-induced BSA glycation (BSA [3]; 7 days): 10 µM
concentration from which glycated albumin is reduced (BSA [3]; [8]): 5 µM
concentration from which AGE formation is significantly inhibited (BSA [3]; [9]): 5 µM
Ki (rat α–glucosidase; ref 49): 14.6 µM
change of cell viability (HT–29 cells [7]; 5 µM): −25 % of the control
IC50 (HT–29 cells [7]; Homo sapiens, HT-29, 0.1 to 50 µM, 24 h, read-out: pD2 for inhibition of HT–29 cell viability (converted)): 36.3 µM

effect on α–glucosidase activity (in words) ([5]; 0.05 µM enzyme, 2 mM pNPG, 1–100 µM compound): did not induce any modification
pD2 (−log EC50) antiradical potency [1]: 4.89 ± 0.03
Structure (SMILES): O=C(O)[C@H]1O[C@@H](Oc2cc3oc(-c4ccccc4)cc(=O)c3c(O)c2O)[C@H](O)[C@@H](O)[C@@H]1O [baicalin, 7–β–D–glucuronic acid of 5,6–trihydroxyflavone]
TEAC (trolox equivalent antioxidant capacity) (ORAC assay): 5.90 ± 0.23 µmol TE/µmol
concentration range with detectable reduction of carbonyl increase (BSA [4]): 10 to 100 µM
lowest concentration tested that inhibited carbonyl formation (BSA [4]): 5 µM
inhibition of carbonyl increase (BSA [4]): 15–25%
reduction of GK peptide cross–linking (in words) [2]: only slightly and not significantly reduced
concentration inhibiting glyoxal-induced BSA glycation (BSA [3]; 7 days): 5 µM
concentration from which glycated albumin is reduced (BSA [3]; [8]): 5 µM
concentration from which AGE formation is significantly inhibited (BSA [3]; [9]): 5 µM
IC50 (rat α–glucosidase; in vitro): > 400 µM
